Data reported in publication PMC9950205, “Efficacy, safety, and pharmacokinetics of teduglutide in adult Japanese patients with short bowel syndrome and intestinal failure: two phase III studies with an extension” (Surgery Today, 2022).
Like-named read-outs stand apart in the source and are kept apart here.

Columns and labels:
[1] = system: adult Japanese patients with SBS-IF; experiment: Urine output, change from baseline; assay type: in vivo, human; details: for 48 h urine output increase from baseline / 48 h urine output percent increase from baseline: 24 weeks
Procedure: As in the previous STEPS-1 study, patients participating in the core studies (TED-C14-004 and SHP633-306) underwent an optimization (2–8 weeks) and stabilization (4–8 weeks) period before initiation of treatment with teduglutide, during which PS was adjusted with the goal of achieving a stable target urine output of 1.0–2.0 L/day. All participating patients received teduglutide 0.05 mg/kg SC once daily throughout these three studies. PS was adjusted according to an algorithm based on the change from baseline in urine output and other assessments of fluid balance and nutrition status; the PS adjustment algorithm required reductions in PS if the urine output rose more than 10% above baseline. Patients had study visits at weeks 2 and 4, after which visits were held monthly during TED-C14-004 and SHP633-306. During SHP633-307, patients from SHP633-306 had monthly study visits throughout the 24 total months of treatment and then at 3-month intervals thereafter, and patients from TED-C14-004 had visits at 3-month intervals. The end-of-study assessments for SHP633-306 and TED-C14-004 were combined with the first visit of SHP633-307. SHP633-307 is ending soon with the approval of teduglutide in Japan.

[2] = Plasma pharmacokinetics of teduglutide, non-compartmental analysis; assay type: in vivo, human; details: for half-life / AUC(0-inf) / AUC(0-t) / Cmax / Tmax: human, plasma, 0.05 mg/kg; for half-life: read-out: t½ (converted)
Procedure: In TED-C14-004 and SHP633-306, blood samples for PK evaluations were taken pre-dose and at 0.25, 0.5, 1, 2, 3, 4, 6, 8, 10, and 12 h post-dose during the first 12 weeks of treatment with teduglutide. In SHP633-307, patients continuing from study TED-C14-004 had blood samples for PK evaluations taken pre-dose and at […], and 1, 2, 3, 4, 6, 8, 10, and 12 h post-dose at the first extension study visit. Patients continuing from SHP633-306 had blood samples taken pre-dose and 1 and 2 h post-dose at the first extension study visit. Blood samples to test for the presence of antibodies to teduglutide were taken at baseline and weeks 12 and 24 in SHP633-306; ≥ 14 h after dosing at baseline and weeks 12 and 24, and then every 6 months thereafter in TED-C14-004; and every 3 months in SHP633-307.
Single-dose PK parameters were estimated using a non-compartmental analysis and included the maximum plasma concentration of teduglutide (Cmax), time to Cmax (tmax), terminal half-life elimination (t½), area under the plasma concentration–time curve (AUC) from time 0 to infinity (AUC0-inf), and AUC from time 0 to the last measurable concentration (AUC0-t).

[3] = 30 months, TED-C14-004, n = 7, mean ± SD
[4] = after 6 months, patients who advanced to SHP633-307 from SHP633-306, n = 4, mean ± SD
[5] = last visit before interim data cut-off of SHP633-307, patients from TED-C14-004, n = 7, mean ± SD
[6] = sc, SHP633-306, plasma, 0.05 mg/kg SC once daily, n = 7, mean ± SD
[7] = sc, TED-C14-004, plasma, 0.05 mg/kg SC once daily, n = 8, mean ± SD
[8] = subcutaneous, SHP633-307, patients from TED-C14-004, first extension study visit, mean ± SD

In the case of `CC[C@H](C)[C@H](NC(=O)[C@H](Cc1ccccc1)NC(=O)[C@H](CC(=O)O)NC(=O)[C@H](CCCNC(=N)N)NC(=O)[C@H](C)NC(=O)[C@H](C)NC(=O)[C@H](CC(C)C)NC(=O)[C@H](CC(N)=O)NC(=O)[C@H](CC(=O)O)NC(=O)[C@H](CC(C)C)NC(=O)[C@@H](NC(=O)[C@@H](NC(=O)[C@H](CC(N)=O)NC(=O)[C@H](CCSC)NC(=O)[C@H](CCC(=O)O)NC(=O)[C@H](CC(=O)O)NC(=O)[C@H](CO)NC(=O)[C@H](Cc1ccccc1)NC(=O)[C@H](CO)NC(=O)CNC(=O)[C@H](CC(=O)O)NC(=O)CNC(=O)[C@@H](N)Cc1c[nH]cn1)[C@@H](C)O)[C@@H](C)CC)C(=O)N[C@@H](CC(N)=O)C(=O)N[C@@H](Cc1c[nH]c2ccccc12)C(=O)N[C@@H](CC(C)C)C(=O)N[C@H](C(=O)N[C@@H](CCC(N)=O)C(=O)N[C@H](C(=O)N[C@@H](CCCCN)C(=O)N[C@H](C(=O)N[C@H](C(=O)N[C@@H](CC(=O)O)C(=O)O)[C@@H](C)O)[C@@H](C)CC)[C@@H](C)O)[C@@H](C)CC` [teduglutide], the “48 h urine output increase from baseline” value ([1]; SHP633-306, n = 6, mean ± SD) is reported as 212.5 ± 265.9 mL/day, the “48 h urine output percent increase from baseline” value ([1]; SHP633-306, n = 6, mean ± SD) is reported as 18.0% ± 23.9% and the “48 h urine output increase from baseline” value ([1]; TED-C14-004, n = 9, mean ± SD) is reported as 226.7 ± 555.1 mL/day. For the same molecule, the “48 h urine output percent increase from baseline” value ([1]; TED-C14-004, n = 9, mean ± SD) was 9.3% ± 22.4%, the “Urine output increase from baseline” value [1, 3] was 306.0 ± 735.0 mL/day and the “Urine output percent increase from baseline” value [1, 3] was 11.2% ± 24.6%. For the same molecule, the “Urine output increase from baseline” value [1, 4] was 345.0 ± 217.8 mL/day, the “Urine output percent increase from baseline” value [1, 4] was 29.0 ± 21.6% and the Mean urine output [1, 5] was 1388.2 ± 507.8 mL/day. The “Urine output percent change from baseline” value [1, 5] was −2.0% ± 35.3%, the “Pre-dose concentrations after multiple dosing” value ([2]; SHP633-307, patients from SHP633-306, sparse PK sampling, suggests no accumulation) was “below the lower limit quantification” and the half-life ([2]; sc, SHP633-306, plasma, 0.05 mg/kg SC once daily, n = 6, mean ± SD) was 1.1 ± 0.2 h. For the same molecule, the AUC(0-inf) [2, 6] was 252 ± 85.4 ng·h/mL, the AUC(0-t) [2, 6] was 240 ± 80.7 ng·h/mL and the Cmax [2, 6] was 49.5 ± 16.4 ng/mL. For the same molecule, the Tmax [2, 6] was 3.6 ± 1.6 h, the AUC(0-inf) [2, 7] was 204 ± 51.1 ng·h/mL and the AUC(0-t) [2, 7] was 201 ± 51.6 ng·h/mL. The Cmax [2, 7] was 49.7 ± 19.7 ng/mL, the Tmax [2, 7] was 2.6 ± 1 h and the half-life [2, 7] was 1.2 ± 0.7 h. It also gave an AUC(0-inf) [2, 8] of 209 ± 72.7 ng·h/mL, an AUC(0-t) [2, 8] of 200 ± 71.6 ng·h/mL and a Cmax [2, 8] of 54.1 ± 18.7 ng/mL. The Tmax [2, 8] was 2.1 ± 0.4 h.
